Tested on: Human Cav2.3 channel
Experiment: Human Cav2.3 channel calcium-influx assay
Format: cell-based
Conditions: Fluo8 fluorescence, HEK-293 T-Rex/Kir2.1/Cav2.3e cells, without pluronic acid
Description: HEK-293 T-Rex cells were transfected with pcDNA3.1-Kir2.1 to generate a stable cell line. After antibiotic selection, the obtained stable pools were analysed using FLIPR^TETRA (membrane potential assay), and a limiting dilution was performed and a HEK-293 T-Rex/Kir2.1 clone was selected. The clone was transfected with pcDNA3.1-Cav2.3e and pBud-Cav-β4-α2δ1 to generate a stable cell line where the Cav2.3e expression is inducible. After antibiotic selection, functional clone pool analysis and two successive limiting dilutions, the final clone underwent a qPCR analysis and a biophysical and pharmacological validation using patch-clamp.
A compound plate, containing 10 test compounds in eight-points dose response with n=4, was prepared. Test compounds dose response curves were prepared in automated fashion in 100% DMSO at CyBio Felix and starting from a stock solution in 100% DMSO; a defined volume was serially moved into destination wells pre-filled with the desired DMSO volume; stock solution concentration volumes were dependent on the final compounds concentrations to be tested and the final DMSO content used in the assay. For the assay test compounds dose response curves ranged from 30 μM and half log dilution with 0.3% final DMSO. In order to obtain the 8-points dose response curve all the concentrations were created by starting from a 10 mM DMSO stock solution and then moving 9.5 μL into a destination well pre-filled with 20.5 μL of 100% DMSO and repeating this step seven times. This initial step was done into 96 MTP plates, 10 compounds/plate. One 384 MTP was then reformatted to contain all the 10 compounds at 8 concentrations, quadruplicate data points. This so obtained 384 MTP compound plate served as source plate in a “mother to child” process with a CyBi®-Well dispenser in which 0.7 μL of compounds were moved into a destination plate pre-filled with 57.6 μL of Tyrode's buffer 0 mM K+, thus obtaining 4× concentrated compounds solution. In columns 1-2 and 23-24 the control wells were added. Both “source” compound plate and “destination” compound plate were barcoded and a relationship between the two plates was thus generated.
The day before the experiment, cells were detached by gentle wash with DPBS, followed by 5 min incubation at 37° C. with Trypsin solution. Detached cells were diluted with OptiMEM+Doxycycline at 0.2 μg/mL, counted and plated in Poly-D-Lysine coated black/clear bottom (15.000 c/well in 20 μl/well) by the use of a MATRIX WellMate dispenser. Plates were placed into a humidified incubator at 37° C. with 5% CO2 until the experimental day. 24 h after seeding 10 μL/well of 1.5× Fluo8 NW dye solution prepared in Tyrode's buffer 0 mM K* were added on top of the seeding medium. Cell plates were incubated for 40-60 min at RT in the dark. We then Injected off-line 10 μL/well of test compounds and controls 4× concentrated in Tyrode's Buffer 0 mM K+ with the CyBi®-Well instrument. Cell plates were incubated 3 minutes at RT. Finally, we injected 20 μL/well of 3× concentrated activator solution (K20-Na130-Ca2 buffer: 20 mM KCl, 130 mM NaCl, 2 mM CaCl2, 10 mM HEPES, 10 mM Glucose, final concentrations, prepared starting from “K0-Na150-Ca2” and “K150-Na0-Ca2” buffers) at FDSS7000EX instrument and read emitted fluorescence for 130 seconds.
Data analysis was performed with Genedata Screener® software and reported compounds activity as % effect in relation to the normalization standards. The Kinetic Response Value (KRV) is calculated as follows:
KRV=Maximal fluorescence recorded from second 5 to second 130 minus baseline fluorescence, computed as average from second 1 to second 2, of the kinetic trace. The KRV was normalized versus Neutral Controls and Inhibitor Controls in order to obtain the Activity[%] for each well. […] Therefore, the compound activity values were scaled (based on the two references) to a common range (two-point normalization). […]

SMILES	Cav2.3 (pIC50)
CN([C@H](c1ccc(C(F)(F)F)cc1)C(F)(F)F)S(=O)(=O)c1cnc2ncccn12 [Example 214, (R)—N-methyl-N-(2,2,2-trifluoro-1-(4-(trifluoromethyl)phenyl)ethyl)imidazo[1,2-a]pyrimidine-3-sulfonamide]	6.95
CCN([C@H](c1ccc(F)c(C)c1)C(F)(F)F)S(=O)(=O)c1cncc(C#N)c1 [Example 246, (R)-5-cyano-N-ethyl-N-(2,2,2-trifluoro-1-(4-fluoro-3-methylphenyl)ethyl)pyridine-3-sulfonamide]	7.31
CCN(C(c1ccc(F)cc1)C(F)(F)F)S(=O)(=O)C1CCCOC1 (stereo not shown) [Example 56, N-ethyl-N-(2,2,2-trifluoro-1-(4-fluorophenyl)ethyl)tetrahydro-2H-pyran-3-sulfonamide]	6.92
CCN(C(c1ccc(F)cc1)C(F)(F)F)S(=O)(=O)c1ccn(C)c(=O)c1 (stereo not shown) [Example 103, N-ethyl-1-methyl-2-oxo-N-(2,2,2-trifluoro-1-(4-fluorophenyl)ethyl)-1,2-dihydropyridine-4-sulfonamide]	6.50
CCN(C(c1ccc(F)cc1)C(F)(F)F)S(=O)(=O)c1ccc(N2CCOCC2)s1 (stereo not shown) [Example 89, N-ethyl-5-morpholino-N-(2,2,2-trifluoro-1-(4-fluorophenyl)ethyl)thiophene-2-sulfonamide]	5.68
CCNc1nc2ccc(S(=O)(=O)N(CC)[C@H](c3ccc(F)cc3)C(F)(F)F)cc2s1 [Example 139, (R)—N-ethyl-2-(ethylamino)-N-(2,2,2-trifluoro-1-(4-fluorophenyl)ethyl)benzo[d]thiazole-6-sulfonamide]	6.31
CN([C@H](c1ccc(Cl)cc1)C(F)(F)F)S(=O)(=O)c1cnc2cccnn12 [Example 210, (R)—N-(1-(4-chlorophenyl)-2,2,2-trifluoroethyl)-N-methylimidazo[1,2-b]pyridazine-3-sulfonamide]	6.85
CCN([C@H](c1ccc(F)c(OC)c1)C(F)(F)F)S(=O)(=O)c1cncc(C#N)c1 [Example 259, (R)-5-cyano-N-ethyl-N-(2,2,2-trifluoro-1-(4-fluoro-3-methoxyphenyl)ethyl)pyridine-3-sulfonamide]	6.61
CCN(C(c1ccccc1OC)C(F)(F)F)S(=O)(=O)c1cncc(C#N)c1 (stereo not shown) [Example 107, 5-Cyano-N-ethyl-N-(2,2,2-trifluoro-1-(2-methoxyphenyl)ethyl)pyridine-3-sulfonamide]	5.08
CCN([C@@H](c1ccc(F)cc1)C(F)(F)F)S(=O)(=O)c1cnc(C)nc1 [Example 76, (S)—N-ethyl-2-methyl-N-(2,2,2-trifluoro-1-(4-fluorophenyl)ethyl)pyrimidine-5-sulfonamide]	5.31
CCN(C(c1ccc(F)cc1)C(F)(F)F)S(=O)(=O)c1cnc(C)nc1 (stereo not shown) [Example 75, N-ethyl-2-methyl-N-(2,2,2-trifluoro-1-(4-fluorophenyl)ethyl)pyrimidine-5-sulfonamide]	5.94
CCN([C@@H](c1ccc(F)c(Cl)c1)C(F)(F)F)S(=O)(=O)c1cncc(C#N)c1 [Example 253, (S)—N-(1-(3-chloro-4-fluorophenyl)-2,2,2-trifluoroethyl)-5-cyano-N-ethylpyridine-3-sulfonamide]	5.56
CCN(C(c1ccc(F)cc1)C(F)(F)F)S(=O)(=O)c1ccc(C2CCOCC2)s1 (stereo not shown) [Example 88, N-ethyl-5-(tetrahydro-2H-pyran-4-yl)-N-(2,2,2-trifluoro-1-(4-fluorophenyl)ethyl)thiophene-2-sulfonamide]	5.60
Cc1ccc(S(=O)(=O)N(C)[C@@H](c2ccc(F)cc2)C(F)(F)F)s1 [Example 12, (S)—N,5-dimethyl-N-(2,2,2-trifluoro-1-(4-fluorophenyl)ethyl)thiophene-2-sulfonamide]	5.00
CCN(C(c1ccc(F)cc1F)C(F)(F)F)S(=O)(=O)c1cncc(C#N)c1 (stereo not shown) [Example 243, 5-cyano-N-(1-(2,4-difluorophenyl)-2,2,2-trifluoroethyl)-N-ethylpyridine-3-sulfonamide]	5.19
CCN([C@H](c1ccc(F)c(F)c1)C(F)(F)F)S(=O)(=O)c1cncc(C#N)c1 [Example 250, (R)-5-cyano-N-(1-(3,4-difluorophenyl)-2,2,2-trifluoroethyl)-N-ethylpyridine-3-sulfonamide]	7.14
CN([C@H](c1ccc(C(F)(F)F)cc1)C(F)(F)F)S(=O)(=O)c1ccn2ccnc2c1 [Example 236, (R)—N-methyl-N-(2,2,2-trifluoro-1-(4-(trifluoromethyl)phenyl)ethyl)imidazo[1,2-a]pyridine-7-sulfonamide]	7.33
CCN([C@H](c1ccc(F)cc1)C(F)(F)F)S(=O)(=O)c1ccc2cn[nH]c2c1 [Example 159, (R)—N-ethyl-N-(2,2,2-trifluoro-1-(4-fluorophenyl)ethyl)-1H-indazole-6-sulfonamide]	6.33
CCN(C(c1ccc(F)cc1)C(F)(F)F)S(=O)(=O)c1cncc(N2CCOCC2)c1 (stereo not shown) [Example 93, N-ethyl-5-morpholino-N-(2,2,2-trifluoro-1-(4-fluorophenyl)ethyl)pyridine-3-sulfonamide]	6.53
Cc1ccc(S(=O)(=O)N(C)C(c2ccc(F)cc2)C(F)(F)F)s1 (stereo not shown) [Example 11, N,5-dimethyl-N-(2,2,2-trifluoro-1-(4-fluorophenyl)ethyl)thiophene-2-sulfonamide]	5.22
CCN([C@H](c1ccc(F)cc1)C(F)(F)F)S(=O)(=O)c1ccc2c(c1)COC2 [Example 38, (R)—N-ethyl-N-(2,2,2-trifluoro-1-(4-fluorophenyl)ethyl)-1,3-dihydroisobenzofuran-5-sulfonamide]	6.91
COc1ccc(S(=O)(=O)N(C)[C@H](c2ccc(Cl)cc2)C(F)(F)F)nn1 [Example 207, (R)—N-(1-(4-chlorophenyl)-2,2,2-trifluoroethyl)-6-methoxy-N-methylpyridazine-3-sulfonamide]	6.02
CCN([C@@H](c1cccc(Cl)c1)C(F)(F)F)S(=O)(=O)c1cncc(C#N)c1 [Example 252, (S)—N-(1-(3-chlorophenyl)-2,2,2-trifluoroethyl)-5-cyano-N-ethylpyridine-3-sulfonamide]	5.71
CN([C@H](c1ccc(C(F)(F)F)cc1)C(F)(F)F)S(=O)(=O)c1cncc(F)c1 [Example 224, (R)-5-fluoro-N-methyl-N-(2,2,2-trifluoro-1-(4-(trifluoromethyl)phenyl)ethyl)pyridine-3-sulfonamide]	6.85
CCN(C(c1ccc(F)cc1)C(F)(F)F)S(=O)(=O)c1csc(C#N)c1 (stereo not shown) [Example 42, 5-Cyano-N-ethyl-N-(2,2,2-trifluoro-1-(4-fluorophenyl)ethyl)thiophene-3-sulfonamide]	6.90
CCN([C@@H](c1cccc(C)c1)C(F)(F)F)S(=O)(=O)c1cncc(C#N)c1 [Example 115, (S)-5-cyano-N-ethyl-N-(2,2,2-trifluoro-1-(m-tolyl)ethyl)pyridine-3-sulfonamide]	5.44
CCN([C@H](c1ccccc1OC)C(F)(F)F)S(=O)(=O)c1cncc(C#N)c1 [Example 109, (R)-5-cyano-N-ethyl-N-(2,2,2-trifluoro-1-(2-methoxyphenyl)ethyl)pyridine-3-sulfonamide]	4.59
CCN(C(c1ccc(F)cc1)C(F)(F)F)S(=O)(=O)c1ccc2c(c1)COC2 (stereo not shown) [Example 36, N-ethyl-N-(2,2,2-trifluoro-1-(4-fluorophenyl)ethyl)-1,3-dihydroisobenzofuran-5-sulfonamide]	6.58
